The melting point is the temperature of the solid-liquid transition.

From patent US8778966B2, “Quinolinone derivatives as PARP and tank inhibitors” (Janssen Pharmaceutica, NV, priority 2007, dated 2014) come the findings set out here.

Read-outs that look alike come from different tables or passages of the source. Bounds are passed on as bounds.

One series relates to HCT116 cells. The experiment in a line: Antiproliferative activity, Alamar Blue assay, HCT116 cells. The following applies: for IC50: Homo sapiens, HCT-116, HCT116 cells, read-out: HCT116 antiproliferative activity pIC50 (converted). It is filed as cell-based, human. On the set-up: key to HCT116 antiproliferative activity pIC50: pIC50 = -log IC50 (IC50: conc. reducing growth to 50% of control). In outline: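 Readout is resazurin fluorescence (ex 540, em 590 nm) after a 4 h dye incubation at 37 °C, following 4-day compound treatment of HCT116 cells plated 24 h earlier. Results expressed as % viable cells versus untreated; pIC50 derived from probit-fitted IC50.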

The next series concerns tubulin. The series is described as follows: Tubulin polymerization assay. Set-up: key: a compound showing 0 to 50% inhibition at 20 μM is reported as score 1; Score 2 compounds are defined as compound showing more than 50% inhibition at 20 μM and less than 50% inhibition at 5 μM; a compound showing more than 50% inhibition at 5 μM is reported as score 3. The following applies: tested at 20 μM and 5 μM. The series is classed as biochemical. In a few lines: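 Cytoskeleton kit tubulin was run in a 10 µl final volume at 37 °C, with fluorescence read every minute for 1 h. Polymerization was taken as the maximum slope (4-point linear regression) and expressed as % of no-compound control. Compounds were tested at 20 µM, then at 5 µM if inhibition exceeded 50%, and scored by % inhibition.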

In another series the test system is PC3 cells. The experiment in a line: EB1 Comet (microtubule disruption) assay. The series is classed as cell-based, human. The following applies: Homo sapiens, PC-3, 1 h, 1 hour treatment, read-out: EB1 pLAC (converted). In outline:
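Readout is loss of Eb1 plus-end foci, scored by immunofluorescence microscopy, in PC3 cells after 1 h compound treatment at 37 °C with 0.6% final DMSO. LAC is defined as the lowest concentration leaving at least 50% of cells without Eb1 foci.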

With `CCc1cc2ccc(C(C)(C#N)Cc3nc(C#N)cc(OC)n3)cc2[nH]c1=O` (single isomer, unassigned) [Compound 204], the melting point turned out to be 180 °C. The “HCT116 antiproliferative activity pIC50” value in the series with HCT116 cells (HCT116 cells) is 7.0.
Take `CCc1cc2c(OC)cc(C(C)(C#N)Cc3nc(OC)cc(OC)n3)cc2[nH]c1=O` (single isomer, unassigned) [Compound 230]: the tubulin polymerisation score in the series with tubulin was 1 (a compound showing 0 to 50% inhibition at 20 μM is reported as score 1). The minimal effective concentration in the series with PC3 cells is 1 µM. The IC50 with HCT116 cells (Alamar Blue) was 1580 nM.
On to `CCc1cc2ccc([C@@](C)(C#N)CCOc3ccc(C#N)cc3)cc2[nH]c1=O` (single isomer, unassigned) [Compound 273], for which, in the series with tubulin, the tubulin polymerisation score is 2. Also, in the series with PC3 cells, the minimal effective concentration was 0.1 µM. Also, in the series on HCT116 cells (Alamar Blue), the IC50 is 398 nM.
As for `CCc1cc2ccc([C@](C)(C#N)Cc3cccc(/C=C/S(C)(=O)=O)c3)cc2[nH]c1=O` (single isomer, unassigned) [Compound 291], the tubulin polymerisation score with tubulin was 2. Besides, the IC50 in the series with HCT116 cells (Alamar Blue) is 200 nM.
As for `CCc1cc2ccc([C@@](C)(C#N)Cc3cccc(C#CCO)c3)cc2[nH]c1=O` (single isomer, unassigned) [Compound 295], the tubulin polymerisation score with tubulin was 1 (a compound showing 0 to 50% inhibition at 20 μM is reported as score 1). For the same compound, the IC50 with HCT116 cells (Alamar Blue) is 10000 nM.
`CCc1cc2ccc([C@](C)(C#N)Cc3cccc(C#CCO)c3)cc2[nH]c1=O` (single isomer, unassigned) [Compound 296] registered a tubulin polymerisation score in the series on tubulin of 2. Also, the IC50 with HCT116 cells (Alamar Blue) is 126 nM.
For `CCc1cc2ccc([C@@](C)(C#N)Cc3cc(OC)nc(C)n3)cc2[nH]c1=O` (single isomer, unassigned) [Compound 361] the same measures were 1 (a compound showing 0 to 50% inhibition at 20 μM is reported as score 1) and 10000 nM.
For `CCc1cc2ccc([C@](C)(C#N)Cc3cc(OC)nc(C)n3)cc2[nH]c1=O` (single isomer, unassigned) [Compound 362], in that order: 2 and 1000 nM.
On to `Cc1cc2ccc([C@](C)(C#N)C3CCc4ccccc43)cc2[nH]c1=O` (single isomer, unassigned) [Compound 386], for which the tubulin polymerisation score in the series with tubulin came out at 2. Further, in the series on PC3 cells, the minimal effective concentration was 0.316 µM. Besides, the IC50 in the series with HCT116 cells (Alamar Blue) was 200 nM.
`CCc1cc2ccc(C(C)(C#N)Cc3cccc(OCCCN4CCNCC4)c3)cc2[nH]c1=O` (stereo not shown) [Compound 25] returned a melting point of 50 °C. Besides, the minimal effective concentration in the series with PC3 cells is over 10 µM. The IC50 with HCT116 cells was 3160 nM.
For the compound `CCc1cc2ccc(C(C#N)(Cc3ccccc3)c3ccc(C#N)cc3)cc2[nH]c1=O` (stereo not shown) [Compound 26], the melting point turned out to be 255 °C. Besides, the minimal effective concentration in the series on PC3 cells is over 10 µM. Moreover, the IC50 in the series with HCT116 cells was 2510 nM.
Consider `CCc1cc2ccc(C(C#N)(Cc3ccccc3)c3ccccc3)cc2[nH]c1=O` (stereo not shown) [Compound 27], for which the melting point is 229 °C. For the same compound, the minimal effective concentration with PC3 cells is 10 µM. Further, in the series on HCT116 cells, the IC50 is 3980 nM.
For `CCc1cc2ccc(C(C#N)(Cc3ccccc3)C3CC3)cc2[nH]c1=O` (stereo not shown) [Compound 29], in that order: 186 °C, 1 µM and 1260 nM.
For `CCc1cc2ccc(C(C#N)(Cc3ccccc3)C(C)C)cc2[nH]c1=O` (stereo not shown) [Compound 30] the same measures were 234 °C, 3.16 µM and 1260 nM.
In the case of `Cc1nc(-c2ccccc2)sc1CC(C)(C#N)c1ccc2cc(C)c(=O)[nH]c2c1` (stereo not shown) [Compound 235], the tubulin polymerisation score in the series with tubulin was 1 (a compound showing 0 to 50% inhibition at 20 μM is reported as score 1). Besides, the IC50 in the series with HCT116 cells (Alamar Blue) was 1580 nM.
For `CCc1cc2ccc(C(C)(C#N)Cc3cccc(C(=O)OC(C)C)c3)cc2[nH]c1=O` (stereo not shown) [Compound 255] the same measures were 2 and 158 nM.
For `CCc1cc2ccc(C(C)(C#N)Cc3cc(Br)cc(N(C)C)c3)cc2[nH]c1=O` (stereo not shown) [Compound 260], in that order: 2 and 158 nM.
Compound `CCOc1cccc(CC(C)(C#N)c2ccc3cc(CC)c(=O)[nH]c3c2)c1` (stereo not shown) [Compound 285] had a tubulin polymerisation score with tubulin of 2. The minimal effective concentration in the series with PC3 cells was 0.316 µM. Also, the IC50 in the series on HCT116 cells (Alamar Blue) was 794 nM.
For `CCc1cc2ccc(C(C)(C#N)Cc3cc(OC)c(OC)c(OC)c3)cc2[nH]c1=O` (stereo not shown) [Compound 289] the same measures were 2, 0.0316 µM and 126 nM.
For `CCc1cc2ccc(C(C)(C#N)CN(C)Cc3ccc(C#N)cc3)cc2[nH]c1=O` (stereo not shown) [Compound 300], in that order: 1 (a compound showing 0 to 50% inhibition at 20 μM is reported as score 1), 0.1 µM and 631 nM.
For `CCc1cc2ccc(C(C)(C#N)Cc3nc(C#N)cc(OC)n3)cc2[nH]c1=O` (stereo not shown) [Compound 313] the same measures were 2, 0.0316 µM and 200 nM.
Take `CCc1cc2ccc(C(C)(C#N)Cc3cc(C#N)nc(OC)c3)cc2[nH]c1=O` (stereo not shown) [Compound 314]: in the series with tubulin, the tubulin polymerisation score is recorded as 1 (a compound showing 0 to 50% inhibition at 20 μM is reported as score 1). Besides, the minimal effective concentration with PC3 cells was 1 µM. For the same compound, the IC50 in the series with HCT116 cells was 631 nM.
For `CCc1cc2ccc(C(C)(C#N)Cc3nc(C#N)cc(N(C)C)n3)cc2[nH]c1=O` (stereo not shown) [Compound 318], the tubulin polymerisation score in the series with tubulin was 1 (a compound showing 0 to 50% inhibition at 20 μM is reported as score 1). For the same compound, in the series on PC3 cells, the minimal effective concentration is 0.316 µM. For the same compound, in the series with HCT116 cells (Alamar Blue), the IC50 is 631 nM.
For `CCc1cc2ccc(C(C)(C#N)Cc3cc(C#N)nc(C)n3)cc2[nH]c1=O` (stereo not shown) [Compound 319], in that order: 2, 1 µM and 2510 nM.
Compound `CCc1cc2ccc(C(C)(C#N)Cc3cc(Cl)nc(N(C)C)c3)cc2[nH]c1=O` (stereo not shown) [Compound 323] returned a tubulin polymerisation score with tubulin of 2. Further, the IC50 in the series on HCT116 cells (Alamar Blue) is 631 nM.
Take `CCc1cc2ccc(C(C)(C#N)Cc3cccc(NC)n3)cc2[nH]c1=O` (stereo not shown) [Compound 339]: the tubulin polymerisation score with tubulin is recorded as 2. Further, the IC50 in the series on HCT116 cells (Alamar Blue) is 2000 nM.
`CCc1cc2ccc(C(C)(C#N)Cc3cc(OC)nc(OC)c3)cc2[nH]c1=O` (stereo not shown) [Compound 350] displayed a tubulin polymerisation score in the series on tubulin of 2. Also, the minimal effective concentration in the series on PC3 cells was 1 µM. Besides, the IC50 with HCT116 cells (Alamar Blue) was 794 nM.
As for `CCc1cc2ccc(C(C)(C#N)Cc3cc(Cl)nc(OC)c3)cc2[nH]c1=O` (stereo not shown) [Compound 351], the minimal effective concentration in the series on PC3 cells was 0.1 µM. For the same compound, the IC50 in the series on HCT116 cells (Alamar Blue) is 398 nM.
Regarding `CCc1cc2ccc(C(C)(C#N)Cc3cc(N(C)C)nc(OC)n3)cc2[nH]c1=O` (stereo not shown) [Compound 354], the minimal effective concentration with PC3 cells was 1 µM. Besides, the IC50 in the series on HCT116 cells (Alamar Blue) was 3160 nM.
In the series on tubulin, `CCc1cc2ccc(C(C)(C#N)Cc3nc(OC)cc(N(C)C)n3)cc2[nH]c1=O` (stereo not shown) [Compound 355] registered a tubulin polymerisation score of 2. Besides, the IC50 with HCT116 cells (Alamar Blue) is 200 nM.
Turning to `CCc1cc2ccc(C(C)(C#N)Cc3cc(Cl)nc(C)n3)cc2[nH]c1=O` (stereo not shown) [Compound 365], in the series on PC3 cells, the minimal effective concentration is 0.316 µM. Besides, in the series on HCT116 cells (Alamar Blue), the IC50 is 631 nM.
Take `CCc1cc2ccc(C(C)(C#N)CN3CCC(c4ccccc4)CC3)cc2[nH]c1=O` (stereo not shown) [Compound 375]: the tubulin polymerisation score in the series with tubulin is 1 (a compound showing 0 to 50% inhibition at 20 μM is reported as score 1). In addition, the minimal effective concentration in the series with PC3 cells was 0.316 µM. The IC50 with HCT116 cells (Alamar Blue) is 2000 nM.
For `CCc1cc2ccc(C(C)(C#N)CN3CCN(c4ccc(C#N)cn4)CC3)cc2[nH]c1=O` (stereo not shown) [Compound 377], in that order: 1 (a compound showing 0 to 50% inhibition at 20 μM is reported as score 1), 1 µM and 1000 nM.
With `CCc1cc2ccc(C(C)(C#N)Cc3cc(Br)cc4c3OCC4)cc2[nH]c1=O` (stereo not shown) [Compound 378], the minimal effective concentration with PC3 cells is 0.316 µM. Moreover, in the series on HCT116 cells (Alamar Blue), the IC50 is 501 nM.
As to `CCc1cc2ccc(C(C)(C#N)Cc3cccc4[nH]ccc34)cc2[nH]c1=O` (stereo not shown) [Compound 379], in the series on tubulin, the tubulin polymerisation score amounted to 2. Further, in the series on HCT116 cells (Alamar Blue), the IC50 was 1260 nM.
For the compound `Cc1cc2ccc([C@](C)(C#N)[C@H]3CCc4ccccc43)cc2[nH]c1=O` [Compound 387], the minimal effective concentration in the series on PC3 cells is 3.16 µM. Also, the IC50 with HCT116 cells (Alamar Blue) is 2510 nM.
For `Cc1cc2ccc(C(C)(C#N)C3CCc4ccccc43)cc2[nH]c1=O` (stereo not shown) [Compound 392] the same measures were 0.316 µM and 398 nM.
For `Cc1cc2ccc(C(C)(C#N)C3CCCc4ccccc43)cc2[nH]c1=O` (stereo not shown) [Compound 404] the same measures were 0.562 µM and 1580 nM.
